Assay in all cases: KINOMEscan
Format in all cases: binding

One assay has as its target T1, AKT2 (Homo sapiens, UniProt P31751).
T1 construct: purchased Ambit KINOMEscan (DiscoverX)
As to conditions: AKT2, 1 uM. The procedure, abridged:
(§1)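 Binding assay, no enzymatic read-out; all compounds tested at 1 μM to find kinases whose substrate binding they inhibit.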

The next assay concerns the target T2, CAMKK2 (Homo sapiens, UniProt Q96RR4).
T2 construct: purchased Ambit KINOMEscan (DiscoverX)
The following applies: CAMKK2, 1 uM. Summed up: as §1

Another assay has as its target T3, CDKL2 (Homo sapiens, UniProt Q92772).
T3 construct: purchased Ambit KINOMEscan (DiscoverX)
As to conditions: CDKL2, 1 uM. Summed up:
as §1

For a further assay, the target named is T4, CSNK1G3 (Homo sapiens, UniProt Q9Y6M4).
T4 construct: purchased Ambit KINOMEscan (DiscoverX)
The following applies: CSNK1G3, 1 uM. The procedure, abridged: as §1

In a further assay the target is T5, CSNK2A1 (Homo sapiens, UniProt P68400).
T5 construct: purchased Ambit KINOMEscan (DiscoverX)
T5 sequence (P68400 whole entry): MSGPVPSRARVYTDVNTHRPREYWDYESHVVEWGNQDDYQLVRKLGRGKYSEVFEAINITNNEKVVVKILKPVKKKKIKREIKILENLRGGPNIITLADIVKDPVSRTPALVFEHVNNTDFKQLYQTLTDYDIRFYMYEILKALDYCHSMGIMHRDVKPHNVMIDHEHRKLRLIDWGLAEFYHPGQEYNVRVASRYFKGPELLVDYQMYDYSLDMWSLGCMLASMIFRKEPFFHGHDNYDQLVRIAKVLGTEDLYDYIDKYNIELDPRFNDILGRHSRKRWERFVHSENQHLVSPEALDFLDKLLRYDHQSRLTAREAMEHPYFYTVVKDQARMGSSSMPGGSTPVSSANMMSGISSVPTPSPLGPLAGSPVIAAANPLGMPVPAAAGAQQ
As to conditions: CSNK2A1, 1 uM. The procedure, abridged:
as §1

The target in another assay is T6, EPHA8 (Homo sapiens, UniProt P29322).
T6 construct: purchased Ambit KINOMEscan (DiscoverX)
As to conditions: EPHA8, 1 uM. The procedure, abridged:
as §1

A further assay has as its target T7, FYN (Homo sapiens, UniProt P06241).
T7 construct: purchased Ambit KINOMEscan (DiscoverX)
As to conditions: 1 uM. Summed up: as §1

For a further assay, the target named is T8, HPK1 (Homo sapiens, UniProt Q92918).
T8 construct: purchased Ambit KINOMEscan (DiscoverX)
The following applies: HPK1, 1 uM. The procedure, abridged:
as §1

A further assay addresses T9, IKK-alpha (Homo sapiens, UniProt O15111).
T9 construct: purchased Ambit KINOMEscan (DiscoverX)
As to conditions: 1 uM. Summed up:
as §1

The target in a further assay is T10, INSR (Homo sapiens, UniProt P06213).
T10 construct: purchased Ambit KINOMEscan (DiscoverX)
As to conditions: 1 uM. Summed up:
as §1

The target of another assay is T11, MAP3K15 (Homo sapiens, UniProt Q6ZN16).
T11 construct: purchased Ambit KINOMEscan (DiscoverX)
As to conditions: MAP3K15, 1 uM. The procedure, abridged: as §1

The target in a further assay is T12, MST2 (Homo sapiens, UniProt Q13188).
T12 construct: purchased Ambit KINOMEscan (DiscoverX)
T12 sequence (Q13188 whole entry): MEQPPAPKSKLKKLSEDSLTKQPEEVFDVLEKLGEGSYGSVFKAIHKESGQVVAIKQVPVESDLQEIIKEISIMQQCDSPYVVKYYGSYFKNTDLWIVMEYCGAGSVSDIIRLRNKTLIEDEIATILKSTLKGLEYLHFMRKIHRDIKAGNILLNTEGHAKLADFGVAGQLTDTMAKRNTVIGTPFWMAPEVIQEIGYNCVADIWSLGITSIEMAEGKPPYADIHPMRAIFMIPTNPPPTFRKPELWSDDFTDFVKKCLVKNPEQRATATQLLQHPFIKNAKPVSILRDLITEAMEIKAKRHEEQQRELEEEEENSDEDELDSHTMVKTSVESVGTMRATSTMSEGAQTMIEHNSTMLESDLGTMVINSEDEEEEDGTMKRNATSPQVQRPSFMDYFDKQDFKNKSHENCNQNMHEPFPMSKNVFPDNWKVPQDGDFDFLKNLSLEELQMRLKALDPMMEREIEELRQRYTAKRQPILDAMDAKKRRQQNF
As to conditions: MST2, 1 uM. Summed up:
as §1

A further assay concerns the target T13, MST4 (Homo sapiens, UniProt Q9P289).
T13 construct: purchased Ambit KINOMEscan (DiscoverX)
The following applies: MST4, 1 uM. The procedure, abridged: as §1

Another assay has as its target T14, MYLK (Homo sapiens, UniProt Q15746).
T14 construct: purchased Ambit KINOMEscan (DiscoverX)
As to conditions: 1 uM. Summed up:
as §1

The target in the next assay is T15, NEK1 (Homo sapiens, UniProt Q96PY6).
T15 construct: purchased Ambit KINOMEscan (DiscoverX)
T15 sequence (Q96PY6 1-1258): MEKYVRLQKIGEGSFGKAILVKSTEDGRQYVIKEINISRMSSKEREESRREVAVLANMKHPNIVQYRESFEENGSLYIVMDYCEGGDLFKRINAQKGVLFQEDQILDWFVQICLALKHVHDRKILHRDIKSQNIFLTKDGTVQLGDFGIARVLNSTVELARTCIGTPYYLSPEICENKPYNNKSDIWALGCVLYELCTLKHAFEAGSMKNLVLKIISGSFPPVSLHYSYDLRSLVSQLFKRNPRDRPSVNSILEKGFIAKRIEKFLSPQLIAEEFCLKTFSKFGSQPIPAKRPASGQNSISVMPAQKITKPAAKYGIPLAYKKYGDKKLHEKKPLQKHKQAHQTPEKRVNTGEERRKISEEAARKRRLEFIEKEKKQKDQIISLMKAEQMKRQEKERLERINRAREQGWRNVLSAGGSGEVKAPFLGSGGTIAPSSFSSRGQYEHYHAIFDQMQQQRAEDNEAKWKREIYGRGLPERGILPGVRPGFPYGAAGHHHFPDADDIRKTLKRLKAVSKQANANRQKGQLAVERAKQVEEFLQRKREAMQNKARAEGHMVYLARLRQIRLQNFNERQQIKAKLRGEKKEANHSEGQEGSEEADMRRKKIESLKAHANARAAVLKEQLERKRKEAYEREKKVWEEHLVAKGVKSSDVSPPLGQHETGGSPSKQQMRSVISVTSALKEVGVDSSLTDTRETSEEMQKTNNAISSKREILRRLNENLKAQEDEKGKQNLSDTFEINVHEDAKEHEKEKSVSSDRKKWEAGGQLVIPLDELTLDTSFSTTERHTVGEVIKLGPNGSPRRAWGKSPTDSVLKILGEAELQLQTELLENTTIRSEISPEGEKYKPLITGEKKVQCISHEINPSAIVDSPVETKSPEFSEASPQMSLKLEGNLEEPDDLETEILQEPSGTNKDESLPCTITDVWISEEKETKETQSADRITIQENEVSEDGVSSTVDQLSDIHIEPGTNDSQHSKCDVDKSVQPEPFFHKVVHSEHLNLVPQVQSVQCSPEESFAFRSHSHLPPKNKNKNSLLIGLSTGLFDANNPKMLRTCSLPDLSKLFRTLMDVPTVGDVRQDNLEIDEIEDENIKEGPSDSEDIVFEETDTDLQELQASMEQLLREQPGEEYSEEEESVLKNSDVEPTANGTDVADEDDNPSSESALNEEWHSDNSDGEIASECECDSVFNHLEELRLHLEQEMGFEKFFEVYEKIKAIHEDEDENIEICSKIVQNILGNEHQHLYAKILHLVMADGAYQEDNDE
The following applies: for % binding compared to no inhibitor control: NEK1, 1 uM. Summed up:
as §1

In a further assay the target is T16, PIK3C2B (Homo sapiens, UniProt O00750).
T16 construct: purchased Ambit KINOMEscan (DiscoverX)
As to conditions: 1 uM. The procedure, abridged: as §1

The target of a further assay is T17, PKN2 (Homo sapiens, UniProt Q16513).
T17 construct: purchased Ambit KINOMEscan (DiscoverX)
T17 sequence (Q16513 whole entry): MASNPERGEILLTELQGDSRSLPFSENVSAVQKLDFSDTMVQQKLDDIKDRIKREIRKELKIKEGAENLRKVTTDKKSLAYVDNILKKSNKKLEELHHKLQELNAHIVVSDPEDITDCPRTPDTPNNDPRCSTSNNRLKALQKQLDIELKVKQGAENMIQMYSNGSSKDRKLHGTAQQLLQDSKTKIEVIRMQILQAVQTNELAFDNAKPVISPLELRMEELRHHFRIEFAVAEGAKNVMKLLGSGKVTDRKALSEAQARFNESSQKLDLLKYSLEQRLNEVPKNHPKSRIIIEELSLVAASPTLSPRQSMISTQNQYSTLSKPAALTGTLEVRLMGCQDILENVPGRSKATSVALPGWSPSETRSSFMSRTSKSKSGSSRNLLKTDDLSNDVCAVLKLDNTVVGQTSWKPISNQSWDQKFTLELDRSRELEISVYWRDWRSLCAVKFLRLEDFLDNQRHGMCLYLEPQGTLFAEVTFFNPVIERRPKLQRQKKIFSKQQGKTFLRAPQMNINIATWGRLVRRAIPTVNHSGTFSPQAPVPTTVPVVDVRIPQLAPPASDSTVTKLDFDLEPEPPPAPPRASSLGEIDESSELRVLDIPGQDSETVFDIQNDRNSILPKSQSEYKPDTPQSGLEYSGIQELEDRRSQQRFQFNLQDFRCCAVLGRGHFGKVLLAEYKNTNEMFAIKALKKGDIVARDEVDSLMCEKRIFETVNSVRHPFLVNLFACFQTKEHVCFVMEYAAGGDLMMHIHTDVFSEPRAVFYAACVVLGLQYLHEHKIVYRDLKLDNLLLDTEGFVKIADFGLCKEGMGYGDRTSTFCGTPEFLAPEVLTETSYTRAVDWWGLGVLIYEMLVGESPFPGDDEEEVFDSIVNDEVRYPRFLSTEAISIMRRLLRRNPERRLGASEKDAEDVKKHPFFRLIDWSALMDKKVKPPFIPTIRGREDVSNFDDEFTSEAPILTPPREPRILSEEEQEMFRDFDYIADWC
The following applies: PKN2, 1 uM. Summed up:
as §1

Another assay addresses T18, PLK1 (Homo sapiens, UniProt P53350).
T18 construct: purchased Ambit KINOMEscan (DiscoverX)
The following applies: PLK1, 1 uM. The procedure, abridged: as §1

A further assay addresses T19, PLK3 (Homo sapiens, UniProt Q9H4B4).
T19 construct: purchased Ambit KINOMEscan (DiscoverX)
As to conditions: PLK3, 1 uM. The procedure, abridged:
as §1

In a further assay the target is T20, PLK4 (Homo sapiens, UniProt O00444).
T20 construct: purchased Ambit KINOMEscan (DiscoverX)
The following applies: PLK4, 1 uM. The procedure, abridged: as §1

Assay [1] deals with T21, RPS6KA6(Kin.Dom.2-C-terminal) (Homo sapiens, UniProt Q9UK32).
T21 construct: RPS6KA6(Kin.Dom.2-C-terminal); purchased Ambit KINOMEscan (DiscoverX)
T21 sequence (Q9UK32 401-745 limits assumed): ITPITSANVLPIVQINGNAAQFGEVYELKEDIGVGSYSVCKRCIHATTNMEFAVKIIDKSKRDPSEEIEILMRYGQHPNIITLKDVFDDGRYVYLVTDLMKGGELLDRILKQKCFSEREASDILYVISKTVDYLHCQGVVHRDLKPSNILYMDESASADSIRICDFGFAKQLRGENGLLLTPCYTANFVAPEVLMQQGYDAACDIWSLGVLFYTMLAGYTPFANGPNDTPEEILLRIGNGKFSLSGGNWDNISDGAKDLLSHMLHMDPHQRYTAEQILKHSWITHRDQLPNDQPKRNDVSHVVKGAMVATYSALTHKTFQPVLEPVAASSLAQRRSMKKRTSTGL
The following applies: 1 uM. The procedure, abridged: as §1

Assay [2] deals with T22, TYK2(JH1domain-catalytic) (Homo sapiens, UniProt P29597).
T22 construct: TYK2(JH1domain-catalytic); purchased Ambit KINOMEscan (DiscoverX)
As to conditions: 1 uM. Summed up:
as §1

The target of another assay is T23, YANK2 (Homo sapiens, UniProt Q9NY57).
T23 construct: purchased Ambit KINOMEscan (DiscoverX)
T23 sequence (Q9NY57 whole entry): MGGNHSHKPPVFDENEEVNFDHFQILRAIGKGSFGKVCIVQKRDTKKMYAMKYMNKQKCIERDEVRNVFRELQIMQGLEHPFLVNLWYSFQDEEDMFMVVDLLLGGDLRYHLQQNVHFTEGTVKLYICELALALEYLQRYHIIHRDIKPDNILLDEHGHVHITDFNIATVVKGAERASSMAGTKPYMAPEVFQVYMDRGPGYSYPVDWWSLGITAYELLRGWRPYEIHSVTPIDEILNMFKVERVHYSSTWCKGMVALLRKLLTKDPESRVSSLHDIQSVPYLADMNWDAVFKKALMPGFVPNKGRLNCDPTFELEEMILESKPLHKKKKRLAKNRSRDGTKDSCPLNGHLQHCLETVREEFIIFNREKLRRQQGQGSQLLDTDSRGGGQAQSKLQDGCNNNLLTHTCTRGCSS
The following applies: YANK2, 1 uM. The procedure, abridged: as §1

T1 sequence (P31751 whole entry): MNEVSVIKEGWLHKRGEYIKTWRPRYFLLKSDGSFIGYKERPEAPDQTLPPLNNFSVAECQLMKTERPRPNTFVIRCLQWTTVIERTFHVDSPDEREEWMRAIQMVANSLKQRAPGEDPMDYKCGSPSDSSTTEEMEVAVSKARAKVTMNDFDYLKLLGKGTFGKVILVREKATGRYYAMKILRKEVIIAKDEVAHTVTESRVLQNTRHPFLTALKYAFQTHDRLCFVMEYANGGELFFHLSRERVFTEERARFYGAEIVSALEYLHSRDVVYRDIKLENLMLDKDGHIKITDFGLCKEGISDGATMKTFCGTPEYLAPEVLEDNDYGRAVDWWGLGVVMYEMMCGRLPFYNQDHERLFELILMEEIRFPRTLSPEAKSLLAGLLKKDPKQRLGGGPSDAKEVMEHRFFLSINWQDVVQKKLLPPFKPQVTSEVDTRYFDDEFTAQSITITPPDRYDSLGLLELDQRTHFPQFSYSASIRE
T9 sequence (O15111 whole entry): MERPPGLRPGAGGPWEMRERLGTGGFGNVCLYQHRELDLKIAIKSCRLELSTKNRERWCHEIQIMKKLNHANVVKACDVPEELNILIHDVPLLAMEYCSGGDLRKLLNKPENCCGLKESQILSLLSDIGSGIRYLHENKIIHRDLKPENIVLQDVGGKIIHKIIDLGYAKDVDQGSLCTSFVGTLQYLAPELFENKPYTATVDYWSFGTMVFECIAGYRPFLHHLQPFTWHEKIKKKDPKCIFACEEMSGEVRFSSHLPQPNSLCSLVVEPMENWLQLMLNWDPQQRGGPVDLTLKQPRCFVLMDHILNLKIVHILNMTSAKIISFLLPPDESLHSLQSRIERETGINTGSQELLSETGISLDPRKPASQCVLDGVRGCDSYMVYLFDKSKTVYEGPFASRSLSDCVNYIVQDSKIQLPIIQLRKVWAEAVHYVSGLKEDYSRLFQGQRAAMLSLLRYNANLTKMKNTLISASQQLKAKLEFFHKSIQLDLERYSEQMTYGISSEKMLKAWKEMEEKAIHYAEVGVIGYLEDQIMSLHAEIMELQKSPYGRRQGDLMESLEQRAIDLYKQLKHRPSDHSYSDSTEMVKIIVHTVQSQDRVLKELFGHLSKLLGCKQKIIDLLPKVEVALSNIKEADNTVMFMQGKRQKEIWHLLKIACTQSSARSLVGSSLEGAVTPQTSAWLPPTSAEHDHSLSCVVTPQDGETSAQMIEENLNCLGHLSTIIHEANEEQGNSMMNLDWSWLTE
T2 sequence (Q96RR4 whole entry): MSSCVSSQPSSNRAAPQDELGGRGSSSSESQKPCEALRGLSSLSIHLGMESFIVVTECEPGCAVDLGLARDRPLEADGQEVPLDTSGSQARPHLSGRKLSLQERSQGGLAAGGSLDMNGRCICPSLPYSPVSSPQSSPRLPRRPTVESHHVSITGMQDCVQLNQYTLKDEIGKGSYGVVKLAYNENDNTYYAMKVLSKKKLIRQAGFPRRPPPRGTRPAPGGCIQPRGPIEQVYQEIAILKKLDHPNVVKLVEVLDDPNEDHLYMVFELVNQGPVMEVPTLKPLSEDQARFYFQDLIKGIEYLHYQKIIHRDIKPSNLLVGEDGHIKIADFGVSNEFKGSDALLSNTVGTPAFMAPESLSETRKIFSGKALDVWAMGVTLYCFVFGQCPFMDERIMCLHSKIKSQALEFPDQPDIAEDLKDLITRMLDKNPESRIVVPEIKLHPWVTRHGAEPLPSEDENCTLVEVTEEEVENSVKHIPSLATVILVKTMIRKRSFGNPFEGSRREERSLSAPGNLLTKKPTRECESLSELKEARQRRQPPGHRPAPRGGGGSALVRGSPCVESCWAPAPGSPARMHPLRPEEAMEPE
T13 sequence (Q9P289 whole entry): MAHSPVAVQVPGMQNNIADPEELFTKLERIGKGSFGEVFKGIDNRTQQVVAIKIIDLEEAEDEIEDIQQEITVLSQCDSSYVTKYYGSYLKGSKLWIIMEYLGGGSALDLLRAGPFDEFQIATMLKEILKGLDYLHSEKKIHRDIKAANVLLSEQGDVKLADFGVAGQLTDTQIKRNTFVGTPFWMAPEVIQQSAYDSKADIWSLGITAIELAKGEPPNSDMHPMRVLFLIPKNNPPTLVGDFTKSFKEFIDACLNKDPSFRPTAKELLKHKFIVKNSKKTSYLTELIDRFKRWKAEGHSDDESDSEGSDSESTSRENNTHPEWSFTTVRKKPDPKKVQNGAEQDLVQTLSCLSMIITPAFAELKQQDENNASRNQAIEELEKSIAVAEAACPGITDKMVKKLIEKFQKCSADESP

As to `COc1ccc(-c2cc3nccn3c(Nc3ncccc3C(N)=O)n2)cc1OC.Cl.Cl` [BAY61-3606, 2-[7-(3,4-dimethoxyphenyl)-imidazo [1,2-c]pyrimidin-5-ylamino] nicotinamide dihydrochloride, reference compound], the “% binding compared to no inhibitor control” value at AKT2 was 79%; at CAMKK2 it was 51%; at CDKL2 it was 78%; at CSNK1G3, 81%; at CSNK2A1, 70%; on EPHA8, 83%. The “% binding compared to no inhibitor control” value at FYN amounted to 100%; at HPK1 it was 43%; on IKK-alpha, 0.25%; on INSR it was 60%; on MAP3K15 it was 100%; on MST2 it was 97%. Also, the “% binding compared to no inhibitor control” value at MST4 amounted to 57%; on MYLK it was 55%; at NEK1, 27%; at PIK3C2B it was 60%; on PKN2 it was 34%; on PLK1 it was 98%. The “% binding compared to no inhibitor control” value worked out at 37% on PLK3; 35% on PLK4; 79% in assay [1]; 99% in assay [2]; 86% on YANK2. Besides, the “% inhibition ATP binding” value on NEK1 (NEK1, KINOMEscan, 1 μM) was found to be 73%.
Take `COc1ccccc1Nc1nc(-c2ccc(OC)c(OC)c2)cc2nccn12` [BAY derivative 6]: the “% binding compared to no inhibitor control” value at AKT2 came out at 100%; on CAMKK2 it was 100%; on CDKL2, 100%; at CSNK1G3, 100%; at CSNK2A1 it was 86%; on EPHA8, 100%. For the same molecule, the “% binding compared to no inhibitor control” value at FYN worked out at 61%; on HPK1 it was 100%; on IKK-alpha it was 100%; on INSR, 99%; on MAP3K15, 86%; at MST2 it was 82%. The “% binding compared to no inhibitor control” value at MST4 is 72%; at MYLK, 100%; on NEK1, 91%; on PIK3C2B it was 100%; at PKN2, 91%; on PLK1 it was 100%. The “% binding compared to no inhibitor control” value at PLK3 is recorded as 100%; at PLK4 it was 100%; in assay [1] it was 93%; in [2], 25%; at YANK2, 100%.

(Values after PMC3399817 (PLoS ONE, 2012).)
